{"source": "the supplement of paper PMC10307832", "assay_in_all_cases": "relative viability (nuclei count vs DMSO), 5 days (fraction); higher = more cells survive", "key": {"NCI-H1734": {"system": "NCI-H1734", "summary_of_the_method": "(§1)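 Lung cancer cell lines were seeded in 1536-well plates and dosed by pin tool the next day, with either a single drug or a fixed anchor-drug dose combined with five library-drug doses (not always all listed) spaced in √10 steps. Five days later, one step fixed the cells and stained their nuclei (final 0.05% Triton X-100, 1% formaldehyde, 1 ug/ml Hoechst), and nuclei were counted on 4× images. Relative viability is the nuclei count in treated wells divided by the count in vehicle wells, and each value is the median of duplicate plates.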"}, "SW 1573": {"system": "SW 1573", "summary_of_the_method": "as §1"}, "BEN": {"system": "BEN", "summary_of_the_method": "as §1"}, "HCC-44": {"system": "HCC-44", "summary_of_the_method": "as §1"}, "NCI-H358": {"system": "NCI-H358", "summary_of_the_method": "as §1"}, "NCI-H1915": {"system": "NCI-H1915", "summary_of_the_method": "as §1"}, "NCI-H1755": {"system": "NCI-H1755", "summary_of_the_method": "as §1"}, "NCI-H3122": {"system": "NCI-H3122", "summary_of_the_method": "as §1"}, "NCI-H2170": {"system": "NCI-H2170", "summary_of_the_method": "as §1"}, "LU99A": {"system": "LU99A", "summary_of_the_method": "as §1"}, "NCI-H650": {"system": "NCI-H650", "conditions": "first compound 0.001 µM", "summary_of_the_method": "as §1"}}, "data": [{"compound": "Cc1cn(-c2cc(NC(=O)c3ccc(C)c(Nc4nccc(-c5cccnc5)n4)c3)cc(C(F)(F)F)c2)cn1", "note": "[Nilotinib] + O=C(CCCCCCC(=O)Nc1ccccc1)NO [Vorinostat] (partner 1 µM)", "values": [{"measurement": "relative viability", "setting": "NCI-H1734; first compound 0.001 µM", "result": 0.761}, {"measurement": "relative viability", "setting": "NCI-H1734; first compound 0.003162 µM", "result": 0.803}, {"measurement": "relative viability", "setting": "NCI-H1734; first compound 0.01 µM", "result": 0.832}, {"measurement": "relative viability", "setting": "NCI-H1734; first compound 0.03162 µM", "result": 0.626}, {"measurement": "relative viability", "setting": "NCI-H1734; first compound 0.1 µM", "result": 0.371}, {"measurement": "relative viability", "setting": "SW 1573; first compound 0.001 µM", "result": 0.527}, {"measurement": "relative viability", "setting": "SW 1573; first compound 0.003162 µM", "result": 0.849}, {"measurement": "relative viability", "setting": "SW 1573; first compound 0.01 µM", "result": 0.977}, {"measurement": "relative viability", "setting": "SW 1573; first compound 0.03162 µM", "result": 0.438}, {"measurement": "relative viability", "setting": "SW 1573; first compound 0.1 µM", "result": 0.222}, {"measurement": "relative viability", "setting": "BEN; first compound 0.001 µM", "result": 0.532}, {"measurement": "relative viability", "setting": "BEN; first compound 0.003162 µM", "result": 0.556}, {"measurement": "relative viability", "setting": "BEN; first compound 0.01 µM", "result": 0.723}, {"measurement": "relative viability", "setting": "BEN; first compound 0.03162 µM", "result": 0.642}, {"measurement": "relative viability", "setting": "BEN; first compound 0.1 µM", "result": 0.574}, {"measurement": "relative viability", "setting": "HCC-44; first compound 0.001 µM", "result": 1.07}, {"measurement": "relative viability", "setting": "HCC-44; first compound 0.003162 µM", "result": 1.06}, {"measurement": "relative viability", "setting": "HCC-44; first compound 0.01 µM", "result": 1.09}, {"measurement": "relative viability", "setting": "HCC-44; first compound 0.1 µM", "result": 1.07}, {"measurement": "relative viability", "setting": "NCI-H358; first compound 0.001 µM", "result": 0.601}, {"measurement": "relative viability", "setting": "NCI-H358; first compound 0.003162 µM", "result": 0.747}, {"measurement": "relative viability", "setting": "NCI-H358; first compound 0.01 µM", "result": 0.834}, {"measurement": "relative viability", "setting": "NCI-H358; first compound 0.03162 µM", "result": 0.411}, {"measurement": "relative viability", "setting": "NCI-H358; first compound 0.1 µM", "result": 0.424}, {"measurement": "relative viability", "setting": "NCI-H1915; first compound 0.001 µM", "result": 0.454}, {"measurement": "relative viability", "setting": "NCI-H1915; first compound 0.003162 µM", "result": 0.488}, {"measurement": "relative viability", "setting": "NCI-H1915; first compound 0.01 µM", "result": 0.501}, {"measurement": "relative viability", "setting": "NCI-H1915; first compound 0.03162 µM", "result": 0.385}, {"measurement": "relative viability", "setting": "NCI-H1915; first compound 0.1 µM", "result": 0.299}, {"measurement": "relative viability", "setting": "NCI-H1755; first compound 0.001 µM", "result": 0.605}, {"measurement": "relative viability", "setting": "NCI-H1755; first compound 0.003162 µM", "result": 0.755}, {"measurement": "relative viability", "setting": "NCI-H1755; first compound 0.01 µM", "result": 0.695}, {"measurement": "relative viability", "setting": "NCI-H1755; first compound 0.03162 µM", "result": 0.59}, {"measurement": "relative viability", "setting": "NCI-H1755; first compound 0.1 µM", "result": 0.595}, {"measurement": "relative viability", "setting": "NCI-H3122; first compound 0.001 µM", "result": 0.85}, {"measurement": "relative viability", "setting": "NCI-H3122; first compound 0.003162 µM", "result": 1.47}, {"measurement": "relative viability", "setting": "NCI-H3122; first compound 0.01 µM", "result": 1.07}, {"measurement": "relative viability", "setting": "NCI-H3122; first compound 0.03162 µM", "result": 0.89}, {"measurement": "relative viability", "setting": "NCI-H3122; first compound 0.1 µM", "result": 0.851}, {"measurement": "relative viability", "setting": "NCI-H2170; first compound 0.001 µM", "result": 0.818}, {"measurement": "relative viability", "setting": "NCI-H2170; first compound 0.003162 µM", "result": 1.16}, {"measurement": "relative viability", "setting": "NCI-H2170; first compound 0.01 µM", "result": 1.05}, {"measurement": "relative viability", "setting": "NCI-H2170; first compound 0.03162 µM", "result": 0.622}, {"measurement": "relative viability", "setting": "NCI-H2170; first compound 0.1 µM", "result": 0.877}, {"measurement": "relative viability", "setting": "LU99A; first compound 0.001 µM", "result": 0.429}, {"measurement": "relative viability", "setting": "LU99A; first compound 0.003162 µM", "result": 0.506}, {"measurement": "relative viability", "setting": "LU99A; first compound 0.01 µM", "result": 0.468}, {"measurement": "relative viability", "setting": "LU99A; first compound 0.03162 µM", "result": 0.411}, {"measurement": "relative viability", "setting": "LU99A; first compound 0.1 µM", "result": 0.353}, {"measurement": "relative viability", "setting": "NCI-H650", "result": 0.392}]}]}
